One data set relates to HS746T cancer cells. The experiment in a line: Anticancer activity, cell viability by CCK-8, HS746T. In kind it is cell-based. The note with it: 72 hours. The method, then:
(§1) Compounds 1 to 119 synthesized in Example 1 according to the present disclosure were assayed for inhibitory activity against MLK3/LRRK2 enzymes and anticancer activity against HepG2/H[…] cancer cells, and the results are summarized in Table 1, below. Assay for anticancer activity was conducted as follows. HepG2 and H[…] cancer cells were purchased from the Korean Cell Line Bank and cultured according to the instruction provided thereby. One hundred μL of a culture of the cells were seeded at a density of 4,000 cells/well into 96-well plates. After 24 hours, the cells were treated with the compounds for 72 hours. Then, cell viability was assayed using CCK-8 and expressed as % of the control.

The target of data set [1] is T1, human recombinant MLK3 protein (Homo sapiens, UniProt Q16584).
T1 construct: purchased Eurofins
The data set is described as follows: MLK3 kinase activity assay (Eurofins, gamma-33P-ATP, filtermat scintillation counting). Type of data set: biochemical. Conditions: human recombinant MLK3, 120 minutes at room temperature. The method, then: (§2) Compounds 1 to 119 synthesized in Example 1 according to the present disclosure were assayed for inhibitory activity against MLK3/LRRK2 enzymes and anticancer activity against HepG2/HS746T cancer cells, and the results are summarized in Table 1, below.
(§3) Inhibitory activity against MLK3 and LRRK2 enzymes was evaluated in Eurofins. In brief, human recombinant MLK3 protein was mixed with the compounds in a reaction buffer (8 mM MOPS (pH 7.0), 0.2 mM EDTA, 0.33 mg/mL myelin basic protein, 5 mM DTT) to which a mixture of 10 mM magnesium acetate and gamma-33P-ATP was then added before incubation at room temperature for 120 minutes. Afterward, the reaction was terminated with 0.5% phosphoric acid. Ten μL of the total mixture was spotted onto a P30 filtermat which was then washed four times for 4 minutes with 0.425% phosphoric acid and once in methanol prior to scintillation counting. Values for the activity of MLK3 were expressed as % of the control. For the activity of LRRK2, human recombinant LRRK2 protein was mixed with the compounds in a reaction buffer (50 mM HEPES (pH 8.0), 0.2 mM EDTA, 0.01% Brij-35, 1% (w/v) BSA, 5 mM DTT, 250 uM substrate peptide RLGRDKYKTLRQIRQ) and then reacted with a mixture of 10 mM magnesium acetate and gamma-33P-ATP at room temperature for 40 minutes. Afterward, the reaction was terminated with 0.5% phosphoric acid. Ten μL of the total mixture was spotted onto a P30 filtermat which was then washed four times for 4 minutes with 0.425% phosphoric acid and once in methanol prior to scintillation counting. Values for the activity of LRRK2 were expressed as % of the control.

In data set [2] the target is T2, human recombinant LRRK2 protein (Homo sapiens, UniProt Q5S007).
T2 construct: purchased Eurofins
The data set is described as follows: LRRK2 kinase activity assay (Eurofins, gamma-33P-ATP, filtermat scintillation counting). Conditions: human recombinant LRRK2, 40 minutes at room temperature. In kind it is biochemical. Here is the method:
as §2, §3

For the next data set, the system named is HepG2 cancer cells. The experiment in a line: Anticancer activity, cell viability by CCK-8, HepG2. Type of data set: cell-based. Conditions: HepG2, 10 μM, 72 hours. The method, then: as §1

T2 sequence (Q5S007 whole entry): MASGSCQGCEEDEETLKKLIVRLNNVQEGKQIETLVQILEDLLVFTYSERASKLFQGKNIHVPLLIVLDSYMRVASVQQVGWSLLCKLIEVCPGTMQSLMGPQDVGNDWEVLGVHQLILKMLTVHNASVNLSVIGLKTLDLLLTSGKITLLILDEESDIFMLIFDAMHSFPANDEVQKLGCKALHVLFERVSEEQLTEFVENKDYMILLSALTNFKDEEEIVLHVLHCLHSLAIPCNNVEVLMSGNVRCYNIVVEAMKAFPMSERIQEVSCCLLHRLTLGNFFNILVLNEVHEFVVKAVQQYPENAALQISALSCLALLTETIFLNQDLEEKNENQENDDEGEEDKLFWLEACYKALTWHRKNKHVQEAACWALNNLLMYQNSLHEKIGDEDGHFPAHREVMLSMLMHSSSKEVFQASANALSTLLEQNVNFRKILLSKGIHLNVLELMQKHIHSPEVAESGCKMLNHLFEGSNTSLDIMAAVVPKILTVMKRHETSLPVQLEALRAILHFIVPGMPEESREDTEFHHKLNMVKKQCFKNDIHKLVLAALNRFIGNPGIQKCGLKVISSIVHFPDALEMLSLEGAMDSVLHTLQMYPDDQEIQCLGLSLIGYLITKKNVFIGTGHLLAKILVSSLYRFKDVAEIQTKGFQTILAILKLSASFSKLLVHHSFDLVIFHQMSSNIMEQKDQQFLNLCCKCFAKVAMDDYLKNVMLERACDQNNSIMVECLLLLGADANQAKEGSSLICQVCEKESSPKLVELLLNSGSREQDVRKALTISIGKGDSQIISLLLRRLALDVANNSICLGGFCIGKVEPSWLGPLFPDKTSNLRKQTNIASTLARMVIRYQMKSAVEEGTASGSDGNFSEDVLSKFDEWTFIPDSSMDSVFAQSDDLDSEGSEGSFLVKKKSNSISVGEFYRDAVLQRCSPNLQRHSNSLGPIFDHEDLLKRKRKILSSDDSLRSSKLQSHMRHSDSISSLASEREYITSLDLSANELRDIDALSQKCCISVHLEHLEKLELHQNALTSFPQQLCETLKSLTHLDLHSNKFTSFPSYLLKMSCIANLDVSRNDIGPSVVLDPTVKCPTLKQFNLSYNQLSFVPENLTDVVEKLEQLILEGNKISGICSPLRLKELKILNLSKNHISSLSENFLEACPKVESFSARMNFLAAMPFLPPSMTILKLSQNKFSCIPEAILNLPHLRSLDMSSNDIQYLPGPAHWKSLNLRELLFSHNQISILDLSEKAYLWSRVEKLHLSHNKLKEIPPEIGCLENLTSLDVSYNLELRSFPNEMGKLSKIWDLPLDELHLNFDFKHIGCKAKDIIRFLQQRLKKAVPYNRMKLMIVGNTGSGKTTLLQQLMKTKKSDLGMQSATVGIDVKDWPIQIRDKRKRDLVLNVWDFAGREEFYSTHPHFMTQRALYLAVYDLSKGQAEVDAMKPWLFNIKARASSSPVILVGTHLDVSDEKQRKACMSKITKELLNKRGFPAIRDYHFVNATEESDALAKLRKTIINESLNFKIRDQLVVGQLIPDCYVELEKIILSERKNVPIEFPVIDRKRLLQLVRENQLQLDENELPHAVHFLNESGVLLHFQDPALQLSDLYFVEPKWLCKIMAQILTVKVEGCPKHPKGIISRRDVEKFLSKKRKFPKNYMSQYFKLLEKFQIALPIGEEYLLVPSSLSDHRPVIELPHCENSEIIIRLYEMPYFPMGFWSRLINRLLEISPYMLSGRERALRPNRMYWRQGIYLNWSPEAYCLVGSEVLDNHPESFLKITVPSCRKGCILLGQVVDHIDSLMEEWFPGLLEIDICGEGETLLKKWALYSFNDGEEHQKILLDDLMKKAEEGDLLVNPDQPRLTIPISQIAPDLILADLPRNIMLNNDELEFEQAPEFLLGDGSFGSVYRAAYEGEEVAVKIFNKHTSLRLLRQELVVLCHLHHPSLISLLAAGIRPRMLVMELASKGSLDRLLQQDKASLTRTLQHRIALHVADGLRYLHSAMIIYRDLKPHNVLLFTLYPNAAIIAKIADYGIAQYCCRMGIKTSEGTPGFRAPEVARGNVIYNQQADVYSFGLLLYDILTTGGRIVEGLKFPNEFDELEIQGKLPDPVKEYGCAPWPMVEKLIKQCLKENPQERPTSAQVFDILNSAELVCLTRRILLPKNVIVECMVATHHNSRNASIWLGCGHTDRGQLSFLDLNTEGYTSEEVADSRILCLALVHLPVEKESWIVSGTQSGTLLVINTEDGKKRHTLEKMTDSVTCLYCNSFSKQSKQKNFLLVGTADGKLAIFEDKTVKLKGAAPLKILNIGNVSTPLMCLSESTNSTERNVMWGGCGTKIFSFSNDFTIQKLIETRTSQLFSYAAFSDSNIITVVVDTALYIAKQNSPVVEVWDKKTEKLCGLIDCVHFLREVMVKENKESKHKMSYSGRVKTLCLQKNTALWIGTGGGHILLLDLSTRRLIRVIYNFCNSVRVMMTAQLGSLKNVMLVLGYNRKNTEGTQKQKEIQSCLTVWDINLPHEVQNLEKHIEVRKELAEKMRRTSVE
T1 sequence (Q16584 whole entry): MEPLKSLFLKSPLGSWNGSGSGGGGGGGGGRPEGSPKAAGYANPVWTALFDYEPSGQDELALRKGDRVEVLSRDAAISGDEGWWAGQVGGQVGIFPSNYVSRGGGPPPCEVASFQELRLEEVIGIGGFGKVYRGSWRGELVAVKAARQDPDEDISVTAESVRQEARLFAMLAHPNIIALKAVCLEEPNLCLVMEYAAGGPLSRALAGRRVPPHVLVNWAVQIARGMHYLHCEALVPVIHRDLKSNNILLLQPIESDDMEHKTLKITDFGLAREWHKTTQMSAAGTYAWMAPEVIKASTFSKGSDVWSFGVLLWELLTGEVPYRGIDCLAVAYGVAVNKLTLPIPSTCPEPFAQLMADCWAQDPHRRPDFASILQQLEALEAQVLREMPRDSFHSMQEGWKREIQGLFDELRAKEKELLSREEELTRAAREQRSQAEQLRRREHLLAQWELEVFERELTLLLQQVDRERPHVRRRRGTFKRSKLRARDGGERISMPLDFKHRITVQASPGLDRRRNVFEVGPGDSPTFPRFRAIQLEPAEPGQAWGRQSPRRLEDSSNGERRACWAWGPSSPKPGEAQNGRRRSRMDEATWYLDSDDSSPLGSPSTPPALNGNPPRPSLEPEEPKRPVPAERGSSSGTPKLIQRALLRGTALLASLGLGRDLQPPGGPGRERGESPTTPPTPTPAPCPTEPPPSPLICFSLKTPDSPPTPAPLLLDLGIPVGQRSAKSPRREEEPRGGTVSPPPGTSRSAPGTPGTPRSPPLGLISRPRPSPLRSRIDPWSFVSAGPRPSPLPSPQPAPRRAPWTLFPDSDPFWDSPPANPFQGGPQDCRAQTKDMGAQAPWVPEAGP

In general, IC50 refers to the concentration at which inhibition is half-maximal. On to `COc1ccc(-c2n[nH]c3ccc(Nc4ncc(Cl)c(Nc5ccccc5P(C)(C)=O)n4)cc23)cc1F` [compound 109], for which, in the data set with HS746T cancer cells, the “Cell viability (% of Con. 10 μM) HS746T” value is 25 % of Con. Besides, the results for the IC50 in data set [1] and in data set [2] were 1 to 10 nM and 10 to 100 nM, respectively. Also, the “Cell viability (% of Con. 10 μM) HepG2” value in the data set on HepG2 cancer cells is listed as 53 % of Con.
Take `CP(C)(=O)c1ccccc1Nc1nc(NCc2ccccc2)ncc1Cl` [compound 14, (2-((2-(Benzylamino)-5-chloropyrimidin-4-yl)amino)phenyl) dimethylphosphine oxide]: in the data set with HS746T cancer cells, the “Cell viability (% of Con. 10 μM) HS746T” value was 110 % of Con. Moreover, the IC50 in data set [1] and in data set [2] was greater than 1000 nM each time. The “Cell viability (% of Con. 10 μM) HepG2” value with HepG2 cancer cells is 108 % of Con.
With `CP(C)(=O)c1ccccc1Nc1nc(Nc2ccc3ncsc3c2)ncc1Cl` [compound 11, (2-((2-(Benzo[d]thiazol-6-ylamino)-5-chloropyrimidin-4-yl)amino)phenyl)dimethylphosphine oxide], the “Cell viability (% of Con. 10 μM) HS746T” value in the data set with HS746T cancer cells was 27 % of Con. Besides, the IC50 in data set [1] and in data set [2] was 1 to 10 nM each time. Also, in the data set on HepG2 cancer cells, the “Cell viability (% of Con. 10 μM) HepG2” value is listed as 28 % of Con.
Regarding `CP(C)(=O)c1ccccc1Nc1nc(Nc2ccc3c(c2)CNCC3)ncc1Cl` [compound 47, (2-((5-Chloro-2-((1,2,3,4-tetrahydroisoquinolin-7-yl)amino)pyrimidin-4-yl)amino)phenyl)dimethylphosphine oxide], in the data set with HS746T cancer cells, the “Cell viability (% of Con. 10 μM) HS746T” value is recorded as 8 % of Con. The 50% inhibitory concentration (IC50) in data set [1] and in data set [2] was 1 to 10 nM throughout. For the same molecule, the “Cell viability (% of Con. 10 μM) HepG2” value in the data set on HepG2 cancer cells is 24 % of Con.
For the molecule `CP(C)(=O)c1ccccc1Nc1nc(Nc2cccc3[nH]ccc23)ncc1Cl` [compound 68, (2-((2-((1H-Indol-4-yl)amino)-5-chloropyrimidin-4-yl)amino)phenyl)dimethylphosphine oxide], the “Cell viability (% of Con. 10 μM) HS746T” value with HS746T cancer cells is listed as 64 % of Con. The IC50 was in the range of 10 to 100 nM in data set [1] and 1 to 10 nM in data set [2]. Also, the “Cell viability (% of Con. 10 μM) HepG2” value in the data set on HepG2 cancer cells is given as 43 % of Con.
The matching figures for `CP(C)(=O)c1ccccc1Nc1nc(Nc2ccc3[nH]nc(-c4ccc(Cl)c(C(F)(F)F)c4)c3c2)ncc1Cl` [compound 111, (2-((5-Chloro-2-((3-(4-chloro-3-(trifluoromethyl)phenyl)-1H-indazol-5-yl)amino)pyrimidin-4-yl)amino)phenyl)dimethylphosphine oxide]: 7 % of Con, 1 to 10 nM, 10 to 100 nM and 7 % of Con.
On to `COc1cc(Cl)cc(-c2n[nH]c3ccc(Nc4ncc(Cl)c(Nc5ccccc5P(C)(C)=O)n4)cc23)c1` [compound 113, (2-((5-Chloro-2-((3-(3-chloro-5-methoxyphenyl)-1H-indazol-5-yl)amino)pyrimidin-4-yl)amino)phenyl)dimethylphosphine oxide], for which, in the data set on HS746T cancer cells, the “Cell viability (% of Con. 10 μM) HS746T” value was 26 % of Con. Besides, the IC50 in data set [1] lay within 1 to 10 nM; in data set [2], 10 to 100 nM. For the same molecule, in the data set on HepG2 cancer cells, the “Cell viability (% of Con. 10 μM) HepG2” value is 16 % of Con.
For `CP(C)(=O)c1ccccc1Nc1nc(Nc2ccc3[nH]nc(Br)c3c2)ncc1Cl` [compound 67, (2-((2-((3-Bromo-1H-indazol-5-yl)amino)-5-chloropyrimidin-4-yl)amino)phenyl)dimethylphosphine oxide], the “Cell viability (% of Con. 10 μM) HS746T” value in the data set on HS746T cancer cells was 25 % of Con. Besides, the IC50 in data set [1] and in data set [2] was 1 to 10 nM each time. In addition, the “Cell viability (% of Con. 10 μM) HepG2” value with HepG2 cancer cells is 33 % of Con.
In the case of `CC1(C)CNCc2cc(Nc3ncc(Cl)c(Nc4ccccc4P(C)(C)=O)n3)ccc21` [compound 52, (2-((5-Chloro-2-((4,4-dimethyl-1,2,3,4-tetrahydroisoquinolin-7-yl)amino)pyrimidin-4-yl)amino)phenyl)dimethylphosphine oxide], in the data set with HS746T cancer cells, the “Cell viability (% of Con. 10 μM) HS746T” value is 1 % of Con. Besides, the IC50 in data set [1] and in data set [2] was 1 to 10 nM in each case. The “Cell viability (% of Con. 10 μM) HepG2” value in the data set with HepG2 cancer cells was 21 % of Con.
Regarding `CC(C)(C)OC(=O)N1CCN(c2ccc(-c3n[nH]c4ccc(Nc5ncc(Cl)c(Nc6ccccc6P(C)(C)=O)n5)cc34)cc2)CC1` [compound 117, Tert-butyl 4-(4-(5-((5-chloro-4-((2-(dimethylphosphoryl)phenyl)amino)pyrimidin-2-yl)amino)-1H-indazol-3-yl)phenyl)piperazine-1-carboxylate], in the data set with HS746T cancer cells, the “Cell viability (% of Con. 10 μM) HS746T” value is given as 20 % of Con. Also, the IC50 is 1 to 10 nM in data set [1] and 10 to 100 nM in data set [2]. In addition, the “Cell viability (% of Con. 10 μM) HepG2” value in the data set with HepG2 cancer cells is reported as 68 % of Con.
Consider `CS(=O)(=O)N1CCC(Nc2nc(Nc3ccnc4c(F)cccc34)ncc2F)CC1` [compound 38, 5-Fluoro-N^2-(8-fluoroquinolin-4-yl)-N^4-(1-(methylsulfonyl)piperidin-4-yl)pyrimidine-2,4-diamine], for which, in the data set with HS746T cancer cells, the “Cell viability (% of Con. 10 μM) HS746T” value was 90 % of Con. Also, the IC50 was greater than 1000 nM in data set [1] and 100 to 1000 nM in data set [2]. The “Cell viability (% of Con. 10 μM) HepG2” value in the data set on HepG2 cancer cells is recorded as 73 % of Con.
Turning to `CP(C)(=O)c1ccccc1Nc1ncc(Cl)c(Nc2ccccc2P(C)(C)=O)n1` [compound 30, (((5-Chloropyrimidin-2,4-diyl)bis(azanediyl))bis(2,1-phenylene)) bis(dimethylphosphineoxide)], the “Cell viability (% of Con. 10 μM) HS746T” value in the data set on HS746T cancer cells is recorded as 85 % of Con. Also, the IC50 in data set [1] and in data set [2] was greater than 1000 nM in each case. Moreover, the “Cell viability (% of Con. 10 μM) HepG2” value with HepG2 cancer cells is given as 102 % of Con.
`CP(C)(=O)c1ccccc1Nc1nc(Nc2ccc3[nH]nc(-c4ccc(C#N)cc4)c3c2)ncc1Cl` [compound 105, 4-(5-((5-Chloro-4-((2-(dimethylphosphoryl)phenyl)amino)pyrimidin-2-yl)amino)-1H-indazol-3-yl)benzonitrile]: the “Cell viability (% of Con. 10 μM) HS746T” value in the data set with HS746T cancer cells is 23 % of Con. The IC50 in data set [1] fell in the range of 1 to 10 nM; in data set [2] it was 10 to 100 nM. Besides, the “Cell viability (% of Con. 10 μM) HepG2” value in the data set on HepG2 cancer cells was 55 % of Con.
Take `CP(C)(=O)c1ccccc1Nc1nc(Nc2ccncc2)ncc1Cl` [compound 15, (2-((5-Chloro-2-(pyridin-4-ylamino)pyrimidin-4-yl)amino)phenyl) dimethylphosphine oxide]: the “Cell viability (% of Con. 10 μM) HS746T” value in the data set with HS746T cancer cells is 110 % of Con. Also, the IC50 in data set [1] and in data set [2] was greater than 1000 nM throughout. Also, the “Cell viability (% of Con. 10 μM) HepG2” value in the data set on HepG2 cancer cells is 116 % of Con.
For `CCCn1cc(-c2n[nH]c3ccc(Nc4ncc(Cl)c(Nc5ccccc5P(C)(C)=O)n4)cc23)cn1` [compound 95, (2-((5-Chloro-2-((3-(1-propyl-1H-pyrazol-4-yl)-1H-indazol-5-yl)amino)pyrimidin-4-yl)amino)phenyl)dimethylphosphine oxide], the “Cell viability (% of Con. 10 μM) HS746T” value with HS746T cancer cells is listed as 19 % of Con. For the same molecule, the IC50 in data set [1] and in data set [2] was 1 to 10 nM each time. In addition, the “Cell viability (% of Con. 10 μM) HepG2” value in the data set on HepG2 cancer cells was 39 % of Con.
As for `CP(C)(=O)c1ccccc1Nc1nc(Nc2cnc3[nH]nc(-c4cccnc4F)c3c2)ncc1Cl` [compound 98, (2-((5-Chloro-2-((3-(2-fluoropyridin-3-yl)-1H-pyrazolo[3,4-b]pyridin-5-yl)amino)pyrimidin-4-yl)amino)phenyl)dimethylphosphine oxide], the “Cell viability (% of Con. 10 μM) HS746T” value in the data set on HS746T cancer cells was 10 % of Con. Further, the IC50 in data set [1] and in data set [2] was 1 to 10 nM throughout. In addition, the “Cell viability (% of Con. 10 μM) HepG2” value with HepG2 cancer cells is 27 % of Con.

The record behind these values is patent publication US20240270698A2, “NOVEL PYRIMIDINE DERIVATIVE AND USE THEREOF” (KOREA RESEARCH INSTITUTE OF CHEMICAL TECHNOLOGY, priority 2019, published 2024).
